From ChEMBL document CHEMBL5380814, “Targeting Receptor-Interacting Protein Kinase 1 by Novel Benzothiazole Derivatives: Treatment of Acute Lung Injury through the Necroptosis Pathway” (J Med Chem, 2023)
The source made the active and inactive calls. The rule behind the calls is not given here.

Columns and labels:
[1] = tested on: Mus musculus; assay: In vivo anti-inflammatory activity in NNK induced induced C57BL/6J ALI mouse model assessed as lung injury score pretreated at 50 mg/kg, ip for 1 hr followed by NNK administration relative to disease model (reference value: 5.7 +/- 0.5); type: functional
[2] = molecular target: T1, Mixed lineage kinase domain-like protein (Homo sapiens) (UniProt Q8NB16); assay: Inhibition of MLKLphosphorylation in TSZ-induced human HT-29 cells assessed as blocking of TSZ-induced necrosome formation upto 1 uM pretreated with compound for 6 hrs followed by TSZ stimulation for 6 hrs measured by Western analysis; type: cell-based; details: time 12.0 hrs
T1 sequence (whole entry): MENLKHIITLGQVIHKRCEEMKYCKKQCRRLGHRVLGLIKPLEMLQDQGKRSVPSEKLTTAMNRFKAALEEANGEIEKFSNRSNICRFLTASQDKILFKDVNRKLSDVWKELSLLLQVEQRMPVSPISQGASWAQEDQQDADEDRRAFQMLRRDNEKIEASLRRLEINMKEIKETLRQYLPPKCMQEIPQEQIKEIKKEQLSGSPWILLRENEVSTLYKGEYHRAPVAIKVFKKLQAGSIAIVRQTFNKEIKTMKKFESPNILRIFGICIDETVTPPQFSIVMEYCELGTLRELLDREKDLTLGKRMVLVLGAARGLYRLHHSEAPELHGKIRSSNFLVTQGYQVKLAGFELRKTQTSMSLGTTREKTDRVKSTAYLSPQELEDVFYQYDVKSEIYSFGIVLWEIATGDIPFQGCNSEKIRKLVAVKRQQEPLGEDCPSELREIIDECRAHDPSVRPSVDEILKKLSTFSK

[3] = tested on: Mus musculus; assay: In vivo anti-inflammatory activity in NNK induced induced C57BL/6J ALI mouse model assessed as decrease in dry lung weight pretreated at 25 to 100 mg/kg, ip for 1 hr followed by NNK administration relative to disease model; type: functional, organism-based; details: dose 25-100 mg/kg
[4] = tested on: HT-29; assay: Anti-necroptotic activity in human HT-29 cells assessed as inhibition of human TNFalpha/Smac mimetic/Z-VAD-FMK induced necroptosis preincubated with compound followed by TSZ stimulation for 12 hrs; type: functional, cell-based
[5] = molecular target: T2, Receptor-interacting serine/threonine-protein kinase 1 (Homo sapiens) (UniProt Q13546); assay: Inhibition of RIPK1 phosphorylation in TSZ-induced human HT-29 cells assessed as blocking of TSZ-induced necrosome formation at 0.5 uM pretreated with compound for 6 hrs followed by TSZ stimulation for 6 hrs measured by Western analysis; type: cell-based; details: time 12.0 hrs
T2 sequence (whole entry): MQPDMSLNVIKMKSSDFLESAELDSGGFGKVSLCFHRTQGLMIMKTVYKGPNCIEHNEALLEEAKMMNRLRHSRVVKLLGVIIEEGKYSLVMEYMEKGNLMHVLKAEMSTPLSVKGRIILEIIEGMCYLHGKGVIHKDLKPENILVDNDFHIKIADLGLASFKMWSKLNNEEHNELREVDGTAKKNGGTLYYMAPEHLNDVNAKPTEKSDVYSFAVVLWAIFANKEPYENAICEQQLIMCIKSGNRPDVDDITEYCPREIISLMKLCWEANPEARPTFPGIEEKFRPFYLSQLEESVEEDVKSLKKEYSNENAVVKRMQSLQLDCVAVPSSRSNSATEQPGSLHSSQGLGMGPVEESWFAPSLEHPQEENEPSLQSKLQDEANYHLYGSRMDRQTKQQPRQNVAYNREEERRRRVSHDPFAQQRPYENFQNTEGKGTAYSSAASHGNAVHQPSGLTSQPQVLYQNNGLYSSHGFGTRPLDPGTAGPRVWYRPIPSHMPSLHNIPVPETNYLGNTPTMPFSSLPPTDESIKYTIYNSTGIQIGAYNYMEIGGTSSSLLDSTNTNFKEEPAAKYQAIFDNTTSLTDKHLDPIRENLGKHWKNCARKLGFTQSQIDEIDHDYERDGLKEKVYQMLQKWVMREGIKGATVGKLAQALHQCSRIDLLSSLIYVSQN

[6] = tested on: Mus musculus; assay: In vivo anti-inflammatory activity in NNK induced induced C57BL/6J ALI mouse model assessed as lung injury score pretreated at 100 mg/kg, ip for 1 hr followed by NNK administration relative to disease model (reference value: 5.7 +/- 0.5); type: functional
[7] = tested on: Mus musculus; assay: In vivo anti-necrotptic activity in mTNFalpha induced C57BL/6J SIRS mouse model assessed as survival rate pretreated at 5 mg/kg, po for 1 hr followed by mTNFalpha/Z-VAD-FMK administration measured after 40 mins relative to control; type: functional; details: time 100 min, 1.667 h
[8] = tested on: Mus musculus; assay: In vivo anti-inflammatory activity in NNK induced induced C57BL/6J ALI mouse model assessed as decrease in wet lung weight pretreated at 25 to 100 mg/kg, ip for 1 hr followed by NNK administration relative to disease model; type: functional, organism-based; details: dose 25-100 mg/kg
[9] = tested on: Mus musculus; assay: In vivo anti-inflammatory activity in NNK induced induced C57BL/6J ALI mouse model assessed as less bleeding point in lung pretreated at 25 to 100 mg/kg, ip for 1 hr followed by NNK administration by HE staining analysis; type: functional, organism-based; details: dose 25-100 mg/kg
[10] = tested on: Mus musculus; assay: In vivo anti-necrotptic activity in mTNFalpha induced C57BL/6J SIRS mouse model assessed as reduction in serum IL-6 level pretreated at 5 to 20 mg/kg, po for 1 hr followed by mTNFalpha/Z-VAD-FMK administration measured after 3 hrs by ELISA analysis; type: functional, organism-based; details: dose 5-20 mg/kg, time 4.0 hrs
[11] = tested on: Mus musculus; assay: In vivo anti-inflammatory activity in NNK induced induced C57BL/6J ALI mouse model assessed as decrease in inflammatory cell infiltration pretreated at 25 to 100 mg/kg, ip for 1 hr followed by NNK administration by HE staining analysis; type: functional, organism-based; details: dose 25-100 mg/kg
[12] = tested on: Mus musculus; assay: In vivo anti-necrotptic activity in mTNFalpha induced C57BL/6J SIRS mouse model assessed as survival rate pretreated at 10 mg/kg, po for 1 hr followed by mTNFalpha/Z-VAD-FMK administration measured after 40 mins relative to control; type: functional; details: time 100 min, 1.667 h
[13] = tested on: Mus musculus; assay: In vivo anti-necrotptic activity in mTNFalpha induced C57BL/6J SIRS mouse model assessed as protection from body temperature loss pretreated at 20 mg/kg, po for 1 hr followed by mTNFalpha/Z-VAD-FMK administration measured after 45 mins by electric thermometer; type: functional, organism-based; details: time 105.0 min
[14] = tested on: Mus musculus; assay: In vivo anti-inflammatory activity in NNK induced induced C57BL/6J ALI mouse model assessed as decrease in bronchoalveolar lavage fluid (BALF) IL-6 level pretreated at 25 to 100 mg/kg, ip for 1 hr followed by NNK administration; type: functional, organism-based; details: dose 25-100 mg/kg
[15] = tested on: U-937; assay: Anti-necroptotic activity in human U-937 cells assessed as protection against human TNFalpha/cycloheximide/Z-VAD-FMK induced necroptosis preincubated with compound at 1 to 7 uM for 16 to 24 hrs followed by TCZ stimulation for 12 hrs measured by cell-titre glo luminescent cell viability assay; type: functional, cell-based; details: dose 1-7 µM, time 28-36 hrs
[16] = tested on: Mus musculus; assay: In vivo anti-necrotptic activity in mTNFalpha induced C57BL/6J SIRS mouse model assessed as survival rate pretreated at 20 mg/kg, po for 1 hr followed by mTNFalpha/Z-VAD-FMK administration measured after 40 mins relative to control; type: functional; details: time 100 min, 1.667 h

SMILES: CCS(=O)(=O)NC1CCC(C(=O)Nc2nc3cc(F)c(Oc4ccc(F)c(NC(=O)Cc5cccc(C(F)(F)F)c5)c4)cc3s2)CC1 (stereo unspecified)
- Activity [1]: 3.3
- inhibition [2]: Active
- Activity [3]: Active
- Activity [4]: inactive
- inhibition [5]: Active
- Activity [6]: 2.7
- Activity [7]: 30%
- Activity [8]: Active
- Activity [9]: Active
- Activity [10]: Active
- Activity [11]: Active
- Activity [12]: 90%
- Activity [13]: Active
- Activity [14]: Active
- Activity [15]: Active
- Activity [16]: 100%
